This is an account of results in patent US11420949B2, “Cystine diamide analogs for the prevention of cystine stone formation in cystinuria” (Rutgers, The State University of New Jersey, priority 2013, dated 2022).

A short description of data set [1]: Fluorescence assay for inhibition of L-cystine crystal formation (aqueous solubility of L-cystine, OPA/NBC). In kind it is physicochemical. The conditions noted are these: for Ratio: improvement in potency over the control CDME; for fold increase in potency/activity as compared to CDME: at increasing the aqueous solubility of L-cystine. Here is the method: As used herein, the EC2x's are the concentrations required of the candidate compounds to double the aqueous solubility of cystine and were determined to assess drug potency and potential dosing regimens for in vivo use. One of ordinary skill in the art is readily able to ascertain such information using commonly known methodologies.
Another aspect of the present invention is directed to the processes of determining the concentration of L-cystine using a fluorescence assay after OPA/NBC derivatization. In at least one embodiment with respect to this aspect of the invention, the concentration of the L-cystine was assessed by a fluorescence assay. Accordingly, the inventors developed a fluorescence-based assay using O-phthaldialdehyde (OPA) and N-Boc-cysteine (NBC) to accurately measure the concentration of L-cystine in aqueous solutions using a similar protocol we previously reported. OPA/NBC are popular reagents used for precolumn derivatization of amino acids in HPLC. This derivatization is fast and simple to operate. However, the reaction of OPA with the disulfide cystine and NBC yielded derivatives with weak fluorescence. The disulfide in cystine was reduced and then alkylated with iodoacetic acid to form S-carboxymethylcysteine, which yielded OPA/NBS derivatives with normal fluorescence. L-Cystine solution was thus used to construct a standard curve. L-Cystine first reacted with DTT for 10 min, followed by reaction with iodoacetic acid for 15 min, then reacted with OPA and NBC for 3 min. The final mixture was pipetted into 384-well plate and the fluorescence intensity was read at Ex 340 nm/Em 460 nm. A linear standard curve was obtained in the concentration range between 50 μM and 400 μM (see FIG. 3).
Formation of supersaturation solution—a supersaturated solution was formed by dissolving 21 mg of L-cystine in 30 mL of Millipore water (˜3 mM) under reflux at 100° C. for 20 min until the L-cystine was completely dissolved. The supersaturated solution was then allowed to cool slowly with stirring for 75 min.
Construction of standard curves—L-Cystine (5 mg) was dissolved in Millipore water (34.7 mL) to form a 0.6 mM solution as a stock solution. Then, L-cystine solution was diluted to 0.4, 0.3, 0.2, 0.1, 0.05 mM solution. 10 uL of each L-cystine solutions, 90 uL of 0.1 M dibasic sodium phosphate solution, and 10 uL of DTT solution (12.5 mM) were mixed at r.t. for 10 min, before the addition of 10 uL of iodoacetic acid (100 mM) and continued incubation at r.t. for an additional 15 min. This was then followed by the addition of 10 uL of OPA (100 mM in methanol) and 10 uL of NBC (100 mM in methanol). The derivatization was allowed to proceed for 3 min before 40 uL of the mixture was plated in a 384-well plate and read at Ex 340 nm/Em 460 nm. The standard curve was repeated for each set of experiments and used to calculate the concentration of L-cystine in each sample.
Determination of L-cystine concentration—All test compounds were dissolved in water to form 10 mM stock solution. 5 uL of each solution was added to 500 uL L-cystine supersaturated solution. The mixtures were allowed to stand at 25° C. for 72 h. At the end of incubation, the mixtures were centrifuged at 10,000 rpm for 4 min and the supernatants were diluted 2-fold for concentration measurement. Each diluted mixture (10 uL), 0.1 M dibasic sodium phosphate solution (90 uL), and 10 uL of DTT solution (12.5 mM) were mixed at r.t. for 10 min, before the addition of 10 uL of iodoacetic acid (100 mM) and continued incubation at r.t. for an additional 15 min. Derivatization was performed by the addition of 10 uL of OPA (100 mM in methanol) and 10 uL of NBC (100 mM in methanol) for 3 min. 40 uL of the derivatized mixture was plated in a 384-well plate and fluorescence was read at Ex 340 nm/Em 460 nm to derive the concentrations of the original mixtures. […]

The conditions of data set [2]: prior report; cited from earlier work.
For data set [3] the following is noted: AFM, prior report; cited from earlier work.
The next data set deals with cell culture. The conditions noted are these: cell culture experiments, prior report; cited from earlier work.
In the next data set the test system is rats. As to conditions: prior report; cited from earlier work.
The nature of data set [4]: Compound concentration and volume of mouse urine after 7 daily oral doses (LC-MS/MS). The format is in vivo, mice. The conditions noted are these: for oral bioavailability: concluded from urine concentrations after oral dosing. Here is the method: This dose is equivalent to 29 μmol/kg (29 mg/m^2 assuming a body surface area of 0.007 m^2). To determine LH707/LH708 absorption and excretion, these compounds were administered daily for seven days and urine samples collected before and immediately after the last treatment.
(§1) Urine samples (0.15 to 1.1 ml) were collected by placing the mice in metabolic cages for four hours or longer and frozen at −20° C. The four-week treatment samples were analyzed for amino acids by ion exchange chromatography on a Biochrom analyzer (Biochrom US, Holliston, Mass.) and the amino acid levels normalized to nmol/mg creatinine. The seven-day treatment samples were analyzed for LH707 and LH708 by LC-MS (see below).
It was determined that the concentrations of LH707/LH708 in the mine samples collected using LC-MS/MS in positive MRM mode (LH707, 379.0→188.9; LH708, 203.1→101.3) on a Transcend LX2 system (Thermo Fisher, Waltham, Mass.) coupled to an API 4000 (AB Sciex, Framingham, Mass.). […] The gradient was performed at a flow rate of 750 μL/min as follows: 95% B for 90 s, 95 to 5% B in 42 s, 5% B for 30 s.

The next data set concerns Slc3a1 knockout mice. The data set is described as follows: In vivo activity in a genetic mouse model, four-week oral treatment (bladder stones, urine amino acids). Here is the method: Slc3a1 knockout mice in a mixed 129/C57BL6 background were used in the studies described here. Two-mouth old knockout male mice for LH707 or LH708 treatment were selected. […] Most male mice over age six months have bladder stones and some have kidney stones as well. Female knockout mice have crystalluria but no stones until age over 12 months. Mouse genotypes and gender were determined by PCR amplification of tail DNA. Based on previous observations, Slc3a1 heterozygotes have no apparent phenotype so they were used in place of wild-type mice as needed. Animal studies were conducted in accordance with Rutgers University IACUC policies.
LH707 dihydrochloride (MW 451.43) and LH708 tetrahydrochloride (MW 550.44) were prepared fresh daily (2.9 mM in water) and 200 μl was administered to Slc3a1 knockout male mice (body weight 20 g) by gavage daily for four weeks using a 20G disposable flexible plastic feeding needle with a soft tip (Model FTP-20-30, Instech Laboratories, Inc., Plymouth Meeting, Pa.).
This dose is equivalent to 29 μmol/kg (29 mg/m^2 assuming a body surface area of 0.007 m^2). […]
as §1
Mice were sacrificed after urine collection and the bladder and kidneys removed and placed in 10% formalin. […] This application was evaluated for the assessment of quantitative parameters such as bladder volume, stone volume, and stone number from the scanned 3D datasets.
After micro CT scanning, bladders were weighed and the stones removed, weighed, counted, and measured in the longest dimension (see FIG. 5). […]

Where [5] appears, read: concentration required to double the aqueous solubility of cystine, water, 25° C., 72 h.
[6] abbreviates: effective concentration required to double the solubility of L-cystine in water.

Turning to `COC(=O)[C@@H](N)CSSC[C@H](N)C(=O)OC` [CDME, L-cystine dimethylester], the EC2x in data set [1] (setting [5]) is 6.37 mM; in data set [1] (setting [6]) it was 0.00353 mM. Besides, the Ratio in data set [1] stood at 1.0. Moreover, the “concentration that almost completely inhibits the crystallization of L-cystine in water” value in data set [2] is recorded as “above 2 mg/L”. Also, in data set [3], the “growth velocity of six symmetry-equivalent {100} steps of L-cystine crystals” value is reported as “dramatically reduce”. Also, the “concentration causing loss of cell viability” value in the data set with cell culture is “approximately 1 mM”. For the same compound, the “dosage demonstrating adverse effects” value in the data set on rats is on record as “approximately 500 mg/kg per day”.

Take `COC(=O)[C@@H](N)CSSC[C@H](N)C(=O)O` [CME, L-cystine methylester]: in data set [3], the “growth velocity of six symmetry-equivalent {100} steps of L-cystine crystals” value was “dramatically reduce”.

`N[C@@H](CSSC[C@H](N)C(=O)NC1CC1)C(=O)NC1CC1` [LH704, L-Cystine bis(cyclopropylamide)] yielded an EC2x in data set [1] (setting [5]) of 3.53 mM. Also, the Ratio in data set [1] is on record as 1.8.

In the case of `N[C@@H](CSSC[C@H](N)C(=O)N1CCCCC1)C(=O)N1CCCCC1` [LH706, L-Cystine bispiperidine], the EC2x in data set [1] (setting [5]) turned out to be 1.59 mM. The Ratio in data set [1] amounted to 4.0.

In the case of `N[C@@H](CSSC[C@H](N)C(=O)N1CCOCC1)C(=O)N1CCOCC1` [LH707], the “fold increase in potency/activity as compared to CDME” value is on record as “about 7 fold” in data set [1] (listed as CDMOR) and 7.44 fold in data set [1] (listed as VII). For the same compound, the values for the EC2x in data set [1] (setting [5]) and in data set [1] (setting [6]) were 0.86 mM and 0.00086 mM, respectively. Also, the Ratio in data set [1] is 7.4. In addition, in data set [1], the “concentrations at which inhibition of cystine crystallization in vitro occurs” value is listed as “submicromolar”. Besides, the “compound concentration in mouse urine” value in data set [4] (after 7 daily oral doses) is reported as “micromolar concentrations”. Also, the oral bioavailability result in data set [4] is “readily bioavailable”.

As to `CN1CCN(C(=O)[C@@H](N)CSSC[C@H](N)C(=O)N2CCN(C)CC2)CC1` [LH708, L-Cystine bis(N′-methylpiperazide)], the “fold increase in potency/activity as compared to CDME” value in data set [1] (listed as CDNMP) amounted to 24 fold; in data set [1] (listed as VIII), 24.41 fold. In addition, the results for the EC2x in data set [1] (setting [5]) and in data set [1] (setting [6]) were 0.26 mM and 0.00026 mM, respectively. Moreover, the Ratio in data set [1] is given as 24.4. For the same compound, the “concentrations at which inhibition of cystine crystallization in vitro occurs” value in data set [1] is listed as “submicromolar”. Also, in the data set on Slc3a1 knockout mice (Slc3a1 knockout male mice, gavage daily for four weeks, LH708 versus LH707), the “efficacy at inhibiting cystine stone formation” value was “better efficacy”. In the data set with Slc3a1 knockout mice (four-week treatment), the “urine concentration of other amino acids (ornithine, lysine, arginine, proline, valine, leucine, phenylalanine)” value was “no significant changes”. Besides, the “concentration of cystine in mouse urine as compared to before treatment” value in the data set on Slc3a1 knockout mice (four-week treatment, paired t-test) was “significantly increased”. The “compound concentration in mouse urine” value in data set [4] (after 7 daily oral doses) is “micromolar concentrations”. Also, in data set [4] (after 7 daily oral doses, FIG. 7), the “compound concentration in urine of Slc3a1 knockout mice versus control or normal mice” value is reported as “significantly higher concentrations”. Also, the oral bioavailability result in data set [4] is “readily bioavailable”.

Regarding `N[C@@H](CSSC[C@H](N)C(=O)NCCO)C(=O)NCCO` [LH709, L-Cystine diethanolamide], the EC2x in data set [1] (setting [5]) is 2.02 mM. The Ratio in data set [1] was 3.2.
